Reference: patent US20090298752A1, “APLIDINE TREATMENT OF CANCERS” (PHARMA MAR, S.A., priority 1999, published 2009)
“Also recorded” adds a separate entry of the source.

Legend:
[1] = Clinical pharmacokinetics across phase I schedules; format: in vivo, human; settings: plasma PK, initial results
Protocol: […] intravenous schedules are under phase I evaluation: weekly 24 h infusion, biweekly 24 h infusion and 5 consecutive days 1 h infusion every 3 weeks. APL blood concentrations are analysed by liquid chromatography-tandem mass spectrometry. […] An open 2-compartment model fits appropriately most profiles after 24 h infusion. For 1 h infusions a 3-compartment model provides a better fit in most cases. Obtained plasma levels are known to be active in vitro. Evaluation of additional patients, and a comparison of blood cells and plasma PK is ongoing.

[2] = tested on: CT-1, CT-2 and HT-29 cell lines; settings: cited from earlier work
Prostate PC-3 [3] = experiment: sc hollow fibre (HF), prostate tumour cells, rat; format: in vivo; settings: 0.70 mg/kg, 0.7 mg/kg
Protocol: (§1) Different model systems were evaluated to provide the basis for further clinical work. Selective antitumour activities were seen against two histologically different solid tumours: human gastric and prostate carcinomas. Potent in vitro activity to primary gastric tumour specimens or Hs746T gastric tumour cells is evident with IC30 values of 146 and 450 pM, respectively. […] activities were evaluated in nude rodents using sc implanted tumour fragments or hollow fibres (HF) containing tumour cells.
(§2) Follow-up studies necessitated using rats for iv infusions. With this variation, a 24 hr iv infusion schedule produced similar activities against HF gastric (20%) and HF prostate (31%) tumour cells. Cytotoxicity was also found using a 5 day iv infusion schedule against HF prostate tumour cells (33%).

Gastric MRI-H254 = experiment: sc xenograft, gastric tumour, mouse; format: in vivo; settings: for Activity (% T/C.): xenograft, mouse
Protocol: as §1, §2

[4] = Phase I, 1 h weekly infusion x3 q4wk: toxicity and pharmacokinetics; format: in vivo, human; parameters: CL: unit not given here
Text: Adult patients with advanced disease, PS<3, and appropriate organ function are considered eligible; patients receive aplidine wk×3/q^4 wks. 24 solid tumour patients have been entered: median (m) age 55 y, m ECOG=1, 15/24 patients treated with =>2 treatment cycles. Seven dose levels (DL) from 133 mcg/m^2/wk to 2700 mcg/m^2/wk have been assessed: 102 infusions are evaluable for toxicity (tox). […] At 2700 mcg/m^2/wk (4 pts), 1 had G3 hiperbilirrubinemia that has been considered to be dose limiting and therefore 2700 mcg/m^2/wk DL is being expanded. […] Plasma levels >1 ng/ml 24 hours after infusion are reachable form 1800 mcg/m^2/wk. […] Aplidine appears to be clinically feasible at pharmacologically appropriate dose levels.
Aplidine was administered as a 1 hour weekly×3 every four weeks

ornithine decarboxylase = target: T1, ornithine decarboxylase (Homo sapiens, UniProt P11926); settings: all three cell lines; cited from earlier work
T1 construct: endogenous in cells; host or cells: CT-1, CT-2 and HT-29 colon cell lines

VEGF = VEGF secretion from IGROV-1; format: cell-based, human
Prostate PC-3 [5] = experiment: sc xenograft, prostate tumour, mouse; format: in vivo; settings: for Activity (% T/C.): xenograft, mouse
Protocol: as §1, §2

[6] = tested on: Hs746T gastric tumour cells; experiment: in vitro activity on gastric tumour cells; format: cell-based, human
Protocol: as §1

HIF-1 = target: T2, HIF-1 (Homo sapiens, UniProt P27540+Q16665); experiment: gel retardation assay, transcription factor binding; format: biochemical
T2 construct: endogenous in cells; host or cells: nuclear extracts
Protocol: Nuclear extracts were incubated with different aplidine concentrations and labelled oligonucleotides for 60 min. Using gel retardation assay the binding of HIF-1 or AP-1 has been monitored.
Nuclear extracts obtained from cells treated with different aplidine concentrations were incubated with labelled oligonucleotides for 60 min. Using gel retardation assay the binding of HIF-1 has been monitored.

[7] = ip administration, range over regimens
[8] = 3-compartment model, preliminary

T2 sequence (Q16665 whole entry): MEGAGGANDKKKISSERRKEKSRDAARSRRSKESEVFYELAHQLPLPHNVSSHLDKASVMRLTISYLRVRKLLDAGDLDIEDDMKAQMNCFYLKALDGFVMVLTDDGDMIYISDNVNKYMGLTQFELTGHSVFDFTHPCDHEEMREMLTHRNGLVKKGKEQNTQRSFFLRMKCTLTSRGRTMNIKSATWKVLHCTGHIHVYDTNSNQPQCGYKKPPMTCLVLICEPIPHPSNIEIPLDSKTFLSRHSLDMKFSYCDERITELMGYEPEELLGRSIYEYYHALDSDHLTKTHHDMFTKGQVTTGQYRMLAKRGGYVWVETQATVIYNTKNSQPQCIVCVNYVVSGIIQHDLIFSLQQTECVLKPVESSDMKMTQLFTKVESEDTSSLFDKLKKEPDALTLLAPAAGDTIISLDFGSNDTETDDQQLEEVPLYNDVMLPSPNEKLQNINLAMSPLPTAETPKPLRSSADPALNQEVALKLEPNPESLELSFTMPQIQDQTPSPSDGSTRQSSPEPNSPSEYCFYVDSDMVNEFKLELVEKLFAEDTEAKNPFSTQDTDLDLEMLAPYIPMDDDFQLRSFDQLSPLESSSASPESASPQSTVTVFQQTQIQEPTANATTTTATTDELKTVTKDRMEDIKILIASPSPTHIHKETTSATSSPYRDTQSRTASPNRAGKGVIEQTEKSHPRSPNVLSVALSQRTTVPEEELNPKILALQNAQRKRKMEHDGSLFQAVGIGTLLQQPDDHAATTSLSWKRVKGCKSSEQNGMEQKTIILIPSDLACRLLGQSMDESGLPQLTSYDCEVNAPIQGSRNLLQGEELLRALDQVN
T2 sequence (P27540 whole entry): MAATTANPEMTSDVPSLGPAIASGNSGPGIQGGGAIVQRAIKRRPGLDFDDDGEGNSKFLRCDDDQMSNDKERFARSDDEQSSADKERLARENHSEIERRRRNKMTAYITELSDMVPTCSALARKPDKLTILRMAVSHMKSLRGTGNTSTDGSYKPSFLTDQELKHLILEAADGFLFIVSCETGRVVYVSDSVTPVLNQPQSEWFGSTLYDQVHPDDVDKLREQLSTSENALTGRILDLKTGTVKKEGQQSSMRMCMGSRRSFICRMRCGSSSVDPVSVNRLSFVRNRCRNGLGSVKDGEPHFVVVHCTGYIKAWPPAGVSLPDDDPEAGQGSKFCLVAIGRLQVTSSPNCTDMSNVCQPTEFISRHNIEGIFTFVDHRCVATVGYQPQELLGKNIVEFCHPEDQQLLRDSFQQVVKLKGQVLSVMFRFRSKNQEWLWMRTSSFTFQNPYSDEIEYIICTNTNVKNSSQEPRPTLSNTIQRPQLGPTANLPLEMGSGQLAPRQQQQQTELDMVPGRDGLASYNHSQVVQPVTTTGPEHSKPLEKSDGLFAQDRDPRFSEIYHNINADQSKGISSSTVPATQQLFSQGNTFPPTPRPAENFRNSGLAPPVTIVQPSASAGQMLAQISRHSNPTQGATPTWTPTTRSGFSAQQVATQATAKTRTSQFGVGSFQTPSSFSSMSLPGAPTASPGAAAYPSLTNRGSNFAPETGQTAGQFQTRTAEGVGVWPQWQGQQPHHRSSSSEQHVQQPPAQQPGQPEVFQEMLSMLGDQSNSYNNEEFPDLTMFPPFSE
T1 sequence (P11926 whole entry): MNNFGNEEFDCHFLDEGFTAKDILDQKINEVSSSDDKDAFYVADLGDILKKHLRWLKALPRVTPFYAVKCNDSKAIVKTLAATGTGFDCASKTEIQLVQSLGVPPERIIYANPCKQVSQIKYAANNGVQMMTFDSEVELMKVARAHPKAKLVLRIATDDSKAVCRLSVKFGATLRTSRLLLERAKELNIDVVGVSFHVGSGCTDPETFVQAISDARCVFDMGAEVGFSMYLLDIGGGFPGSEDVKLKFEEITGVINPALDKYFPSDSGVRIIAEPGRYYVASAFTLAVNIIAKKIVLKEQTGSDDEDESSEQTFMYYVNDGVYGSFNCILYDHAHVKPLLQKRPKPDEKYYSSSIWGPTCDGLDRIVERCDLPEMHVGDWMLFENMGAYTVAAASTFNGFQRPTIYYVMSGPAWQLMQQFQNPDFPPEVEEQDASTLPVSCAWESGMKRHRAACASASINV

For aplidine, the elimination half lives [1] is listed as 10 to 24 h, the volume of distribution [1] is listed as > 200 L/m^2 and the cytotoxic activity [2] is listed as “dose-dependent cytotoxic activity”. For the same substance, the “Activity (% T/C.)” value (Prostate PC-3 [3]; 24 hr.iv inf.) was 31 % T/C, the “Activity (% T/C.)” value (Prostate PC-3 [3]; 5 day, iv inf) was 33 % T/C and the “Optimal activities, xenografted gastric tumours” value (Gastric MRI-H254; [7]) was 17-20%. For the same substance, the “Activity (% T/C.)” value (Gastric MRI-H254; q4dx3.ip, 1.25 mg/kg) was 18% T/C, the “Activity (% T/C.)” value (Gastric MRI-H254; qd9.ip, 1.05 mg/kg) was 17% T/C and the “Activity (% T/C.)” value (Gastric MRI-H254; qd9.ip, 2.1 mg/kg) was 19% T/C. For the same substance, the “initial phase median half-life” value [4, 8] was 2.4 min, the “intermediate phase median half-life” value [4, 8] was 1.4 h and the “terminal phase median half-life” value [4, 8] was 20.7 h. The “Hypertension G3 (worst toxicity per patient)” value ([4]; 133 mcg/m^2/wk x3, 3 patients) was “(1)”, the “Transaminitis G2 (worst toxicity per patient)” value ([4]; 133 mcg/m^2/wk x3, 3 patients) was 1 and the “Alk. Phos. G3 (worst toxicity per patient)” value ([4]; 266 mcg/m^2/wk x3, 3 patients) was “(1)”. For the same substance, the “Injection site reaction G2 (worst toxicity per patient)” value ([4]; 266 mcg/m^2/wk x3, 3 patients) was 1, the “Asthenia G2 (worst toxicity per patient)” value ([4]; 532 mcg/m^2/wk x3, 3 patients) was 1 and the “Transaminitis G3 (worst toxicity per patient)” value ([4]; 532 mcg/m^2/wk x3, 3 patients) was “(1)”. For the same substance, the “Asthenia G2 (worst toxicity per patient)” value ([4]; 800 mcg/m^2/wk x3, 3 patients) was 1(1), the “Asthenia G3 (worst toxicity per patient)” value ([4]; 800 mcg/m^2/wk x3, 3 patients) was 1(1) and the “CPK elevation G1 (worst toxicity per patient)” value ([4]; 800 mcg/m^2/wk x3, 3 patients) was 1. For the same substance, the “Hypertension G1 (worst toxicity per patient)” value ([4]; 800 mcg/m^2/wk x3, 3 patients) was 1, the “Injection site reaction G2 (worst toxicity per patient)” value ([4]; 800 mcg/m^2/wk x3, 3 patients) was 1 and the “Nausea/vomiting G2 (worst toxicity per patient)” value ([4]; 800 mcg/m^2/wk x3, 3 patients) was 3. For the same substance, the “Transaminitis G2 (worst toxicity per patient)” value ([4]; 800 mcg/m^2/wk x3, 3 patients) was 1, the “Asthenia G2 (worst toxicity per patient)” value ([4]; 1200 mcg/m^2/wk x3, 4 patients) was 3 and the “Injection site reaction G2 (worst toxicity per patient)” value ([4]; 1200 mcg/m^2/wk x3, 4 patients) was 1. For the same substance, the “Myalgia G3 (worst toxicity per patient)” value ([4]; 1200 mcg/m^2/wk x3, 4 patients) was “(1)”, the “Alk. Phos. G2 (worst toxicity per patient)” value ([4]; 1800 mcg/m^2/wk x3, 4 patients) was 1 and the “Asthenia G2 (worst toxicity per patient)” value ([4]; 1800 mcg/m^2/wk x3, 4 patients) was 2. For the same substance, the “Injection site reaction G2 (worst toxicity per patient)” value ([4]; 1800 mcg/m^2/wk x3, 4 patients) was 1, the “Nausea/vomiting G2 (worst toxicity per patient)” value ([4]; 1800 mcg/m^2/wk x3, 4 patients) was 3 and the “Transaminitis G2 (worst toxicity per patient)” value ([4]; 1800 mcg/m^2/wk x3, 4 patients) was 1. For the same substance, the “G3 hiperbilirrubinemia (dose limiting)” value ([4]; 2700 mcg/m^2/wk (4 pts)) was 1, the “Asthenia G2 (worst toxicity per patient)” value ([4]; 2700 mcg/m^2/wk x3, 8 patients) was 1(1) and the “Asthenia G3 (worst toxicity per patient)” value ([4]; 2700 mcg/m^2/wk x3, 8 patients) was 1(1). For the same substance, the “Injection site reaction G2 (worst toxicity per patient)” value ([4]; 2700 mcg/m^2/wk x3, 8 patients) was 3, the “Nausea/vomiting G2 (worst toxicity per patient)” value ([4]; 2700 mcg/m^2/wk x3, 8 patients) was 2 and the “Transaminitis G2 (worst toxicity per patient)” value ([4]; 2700 mcg/m^2/wk x3, 8 patients) was 1. The “Bilirrubin G3 (worst toxicity per patient)” value ([4]; 2700 mcg/m^2/wk x3, 8 patients, footnote DLT) was 1(1)^(2), the “CPK elevation G1 (worst toxicity per patient)” value ([4]; 3600 mcg/m^2/wk x3, 2 patients) was 1 and the clinically feasible dose ([4]; 1 hour infusion weekly with one week rest) was ≤ 3600 mcg/m^2 every week. For the same substance, the haematological tox ([4]; Example 13, 102 infusions) was “No haematological tox”, the CL ([4]; Example 13, median) was 0.60 and the “m Vss” value ([4]; Example 13, median) was 308 L/m^2. The “m elimination half life” value ([4]; Example 13, median) was 14.2 h, the Bone marrow toxicity ([4]; Example 17) was “has not been reported” and the “coefficient of variation of CL” value ([4]; Example 17, interpatient) was 33%. The Vss ([4]; Example 17, median (quartiles)) was 345 (220-398) L/m^2, the “t ½” value ([4]; Example 17, median (quartiles)) was 15.8 (13.3-19.5) h and the “plasma CL” value ([4]; Example 17, median, quartiles 288-407) was 329 mL/min/m^2. The “dose from which potentially therapeutic plasma levels are achievable” value ([4]; in vivo) was ≥ 1200 μg/m^2, the “Plasma levels 24 hours after infusion” value ([4]; reachable from 1800 mcg/m^2/wk) was > 1 ng/mL and the ornithine decarboxylase activity (ornithine decarboxylase) was “decreased ornithine decarboxylase activity”. For the same substance, the “secretion of VEGF, in words” value (VEGF) was “reduce the secretion of VEGF”, the “Optimal activities, xenografted prostate tumours” value (Prostate PC-3 [5]; [7]) was 25-38% and the “Activity (% T/C.)” value (Prostate PC-3 [5]; q4dx3.ip, 1.05 mg/kg) was 38% T/C. The “Activity (% T/C.)” value (Prostate PC-3 [5]; q4dx3.ip, 2.10 mg/kg) was 34% T/C, the “Activity (% T/C.)” value (Prostate PC-3 [5]; qd9.ip, 0.62 mg/kg) was 30% T/C and the “Activity (% T/C.)” value (Prostate PC-3 [5]; qd9.ip, 1.25 mg/kg) was 25% T/C. The IC30 [6] was 0.45 nM, the “binding of HIF-1 to consensus DNA sequence” value (HIF-1; nuclear extracts from cells treated with aplidine) was “does not block the binding” and the “binding of HIF-1 to consensus DNA sequence” value (HIF-1; nuclear extracts incubated with aplidine, 60 min) was “does not block the binding; also recorded: did not change the ability”.
